The text below walks through data of a melting point compilation (Tetko et al.; mined from patent text by program, amines drawn as free bases though some values may be those of a salt).

As to `c1ccc(-c2ccc(OC3CN(C(c4ccccc4)c4ccccc4)C3)cc2)cc1`, the melting point was 141 to 142 °C.
`Cc1cc(NC(=O)c2cnccc2C(F)(F)F)on1` displayed a melting point of 53 to 55 °C.
The result for `COc1cc(Nc2nccc(Nc3ccc(OCCCO)cc3)n2)cc(OC)c1OC` reads 69 °C.
The compound `Nc1nnc(-c2ccc3ncn(-c4cccc(C(F)(F)F)c4)c3c2)o1` returned a melting point of 244 to 245 °C.
The result for `Cc1ccc2c(N)c(Cl)ccc2n1` reads 196 to 197 °C.
For `COc1cc2cc3c(Nc4ccc(F)c(Cl)c4)c(C#N)cnc3cc2cc1OCCN1CCOCC1` the value was 237 to 242 °C; for `Cc1c(F)c(N2CCNCC2)cc2c1c(=O)c(C(=O)O)cn2C1CC1`, 226 to 228 °C; for `O=C(Nc1ccc(Oc2ccnc(NC3CCC3)n2)c2ccccc12)c1cc(F)cc(N2CCOCC2)c1`, 110 to 112 °C.
The result for `COC(=O)c1cc(N)n[nH]1` reads 134 °C; that for `Cc1ccc2c(Cl)cc(S(=O)(=O)NCc3ccc(Cl)cc3)c(O)c2n1`, 158 to 161 °C; that for `N=C(N)NC(=O)c1cn(-c2ccc3ccccc3n2)c2ncccc12`, 242 °C.
Consider `COc1ccccc1C(c1ccccc1)c1cccc(-c2ccccc2)c1O` (centres undefined), for which the melting point turned out to be 120 °C.
`CC(C)(CNC(=O)C(O)CO)c1ccc(C(=O)Nc2cn3cc(Cl)ccc3n2)cc1` (centres undefined) showed a melting point of 228 to 229 °C.
The result for `CCCCCS(=O)(=O)NC(=O)C(C)Cc1ccc(OCCOC)cc1Oc1ncc(C(F)(F)F)cc1Cl` (centres undefined) reads 136 to 138 °C; that for `CCOC(=O)N1CCN(c2ncnc3c2cnn3Cc2ccncc2)CC1`, 123 to 124 °C; that for `Cc1cn2cccc(OCc3c(Cl)ccc(S(=O)(=O)N4CCC[C@H]4C(=O)O)c3Cl)c2n1`, 135 °C.
The result for `C=Cc1ccc(Nc2nc(Cl)nc(OC)n2)cc1` reads 118 to 122 °C; that for `COc1ccc(-c2cc(-c3cc(C)ns3)c(=O)n(C)c2-c2ccncc2)cc1`, 195 to 198 °C.
For `O=C(N[C@H](Cc1ccc(C(F)(F)F)cc1)[C@@H](O)c1cccc2ccccc12)C1CCCCC1` (racemic) the value was 156 to 157 °C; for `COc1ccc(S(=O)(=O)N(CC(N)=O)c2ccc(N(C)C)cc2Cc2ccccc2Cl)cc1OC`, 130 °C; for `CSc1nc(Cl)c(C#N)c(N2CCc3ccccc3CC2)n1`, 144 to 150 °C.
`CCCCC(C)C(C=Cc1ccc(OCc2ccccc2)c(OCc2ccccc2)c1)OC` (centres undefined) showed a melting point of 36 to 38 °C.
For `CCCc1c(O[C@H]2CCC[C@H](Oc3ccc(C(=O)CCC(=O)O)cc3)C2)ccc(C(C)=O)c1O` (relative stereo) the value was 90 to 94 °C; for `Cc1cc(C)c(Nc2nc(C)ccc2S(=O)(=O)c2ccc(C(=O)c3ccccc3)cc2)c(C)c1`, 222 to 225 °C.
The result for `Cc1c(OCc2ccc(F)cc2)cnn(C(C)(C)C)c1=O` reads 65 to 66.5 °C.
Compound `CCCCCCCCCCCCCCCCCCNC(=O)OCC(CNS(=O)(=O)CCCI)NC(C)=O` (centres undefined) registered a melting point of 101 to 102 °C.
`Cc1cc2c(C(=O)O)ccc(C(=O)O)c2cc1C` registered a melting point of 268 to 280 °C.
Compound `CCc1cc(Cc2cnc(N)nc2N)cc(CC)c1O` displayed a melting point of 200 to 202 °C.
For `CCCn1c(=O)c([N+](=O)[O-])c2n(c1=O)CCS2` the value was 189 to 191 °C.
The result for `CC(C)N(Cc1ccc2cc(NC(=O)N3CCC(c4ccc(Cl)cc4)CC3)ccc2n1)C(C)C` reads 201 to 203 °C; that for `CCCCc1nc2ccc(C)c(C(=O)O)c2n1Cc1ccc(-c2ccccc2-c2nnn[nH]2)cc1`, 298 to 299 °C; that for `CSc1nn(C(=S)Oc2ccccc2)c(=O)n1C`, 242 °C.
As for `O=C(c1ccc(-c2nc(C(=O)O)co2)cc1)c1cccnc1`, the melting point is 281 to 282 °C.
The result for `N#Cc1ccc(N)cc1N` reads 102 to 103 °C.
